This passage reports Ki results from US8044079B2, “Substituted oxindole derivatives, medicaments containing said derivatives and use thereof” (Abbott GmbH & Co. KG, priority 2005, dated 2011).

Structures are written as SMILES.

The target of the assay is T1, human vasopressin V1b receptor (Homo sapiens, UniProt P47901).
T1 construct: expressed in transfected cells; host or cells: CHO-K1 (cell line hV1b_3H2_CHO), membrane preparation
T1 sequence (P47901 1-424): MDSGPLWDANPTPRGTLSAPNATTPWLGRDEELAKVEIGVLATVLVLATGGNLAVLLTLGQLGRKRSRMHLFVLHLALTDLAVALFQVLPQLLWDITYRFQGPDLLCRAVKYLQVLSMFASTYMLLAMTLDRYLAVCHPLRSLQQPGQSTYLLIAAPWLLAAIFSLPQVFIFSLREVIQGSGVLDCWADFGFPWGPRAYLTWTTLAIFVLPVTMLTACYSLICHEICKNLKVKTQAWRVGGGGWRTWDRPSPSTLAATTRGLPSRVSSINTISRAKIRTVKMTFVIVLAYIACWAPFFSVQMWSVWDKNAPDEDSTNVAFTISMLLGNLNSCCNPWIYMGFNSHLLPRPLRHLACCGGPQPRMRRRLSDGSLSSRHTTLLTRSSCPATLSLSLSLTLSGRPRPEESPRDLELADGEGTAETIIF
Description: Vasopressin V1b receptor binding test. The settings on record: membranes of CHO-K1 cells with human V1b receptor, displacement of 1.5 nM 3H-AVP; for compounds with more than one stereogenic center the diastereomer with greater affinity. As for the experimental part: Vasopressin V1b Receptor Binding Test:
The test substances were dissolved at a concentration of 10^−2 M in DMSO, and were further diluted to 5×10^−4 M to 5×10^−9 M in DMSO. This DMSO predilution series was diluted 1:10 with test buffer. In the test assay the substance concentration was further diluted to 1:5 (2% DMSO in the assay).
The membrane pellet was homogenized again as described and centrifuged, and was then taken up in 50 mM tris-HCl at pH 7.4, homogenized, and frozen in aliquots at −190° C. and stored in liquid nitrogen.
The incubation buffer was 50 mM tris, 10 mM MgCl2, and 0.1% BSA at pH 7.4. […] The nonspecific binding was determined using 1 μM AVP (Bachem #H1780). All determinations were performed in triplicate. After incubation (60 minutes at room temperature), the free radioligand was filtered off by vacuum filtration (Skatron 7000 cell harvester) through Wathman GF/B fiberglass filter mats, and the filters were transferred to scintillation vessels. The liquid scintillation measurement was conducted in a Model 2000 or 2200CA TriCarb unit (Packard). The measured cpm was converted to dpm using a standard quench series.
The binding parameters were calculated by nonlinear regression in SAS.
The affinities of the compounds according to the invention for human vasopressin receptor V1b were measured according to the above test, and the affinity constants (Ki) were determined.

With `COc1ccc(S(=O)(=O)N2C(=O)C(c3ccc(CN4CCOCC4)cc3OC)(N3CCC[C@H]3c3ncco3)c3cc(C#N)ccc32)cc1` (stereo partly drawn) [Example 43, 5-Cyano-1-(4-methoxybenzenesulfonyl)-3-(2-methoxy-4-morpholin-4-ylmethylphenyl)-3-((S)-2-oxazol-2-yl-pyrrolidin-1-yl)-1,3-dihydroindol-2-one], the Ki lay in the range of 0.1 to 1 µM.

For `CNCc1ccc(OC)c(C2(N3CCC[C@H]3c3ncco3)C(=O)N(S(=O)(=O)c3ccc(OC)cc3)c3ccc(C#N)cc32)c1` (stereo partly drawn) [Example 45, 5-Cyano-1-(4-methoxybenzenesulfonyl)-3-(2-methoxy-5-methylaminomethylphenyl)-3-((S)-2-oxazol-2-yl-pyrrolidin-1-yl)-1,3-dihydroindol-2-one], the Ki was less than 0.01 µM.

For `COc1ccc(S(=O)(=O)N2C(=O)C(c3cc(CN(C)C)ccc3OC)(N3CCC[C@H]3c3ncco3)c3cc(C#N)ccc32)cc1` (stereo partly drawn) [Example 46, 5-Cyano-3-(5-dimethylaminomethyl-2-methoxyphenyl)-1-(4-methoxybenzenesulfonyl)-3-((S)-2-oxazol-2-yl-pyrrolidin-1-yl)-1,3-dihydroindol-2-one], the inhibitory constant (Ki) lay within 0.01 to 0.1 µM.

Take `CCNCc1ccc(OC)c(C2(N3CCC[C@H]3c3ncco3)C(=O)N(S(=O)(=O)c3ccc(OC)cc3)c3ccc(C#N)cc32)c1` (stereo partly drawn) [Example 47, 5-Cyano-3-(5-ethylaminomethyl-2-methoxyphenyl)-1-(4-methoxybenzenesulfonyl)-3-((S)-2-oxazol-2-yl-pyrrolidin-1-yl)-1,3-dihydroindol-2-one]: the Ki is less than 0.01 µM.

The molecule `CCN(C)Cc1ccc(OC)c(C2(N3CCC[C@H]3c3ncco3)C(=O)N(S(=O)(=O)c3ccc(OC)cc3)c3ccc(C#N)cc32)c1` (stereo partly drawn) [Example 48, 5-Cyano-3-{5-[(ethylmethylamino)methyl]-2-methoxyphenyl}-1-(4-methoxybenzenesulfonyl)-3-((S)-2-oxazol-2-yl-pyrrolidin-1-yl)-1,3-dihydroindol-2-one] gave a Ki of 0.01 to 0.1 µM.

Molecule `CCN(CC)Cc1ccc(OC)c(C2(N3CCC[C@H]3c3ncco3)C(=O)N(S(=O)(=O)c3ccc(OC)cc3)c3ccc(C#N)cc32)c1` (stereo partly drawn) [Example 49, 5-Cyano-3-(5-diethylaminomethyl-2-methoxyphenyl)-1-(4-methoxybenzenesulfonyl)-3-((S)-2-oxazol-2-yl-pyrrolidin-1-yl)-1,3-dihydroindol-2-one] showed a Ki of 0.01 to 0.1 µM.

`CCCNCc1ccc(OC)c(C2(N3CCC[C@H]3c3ncco3)C(=O)N(S(=O)(=O)c3ccc(OC)cc3)c3ccc(C#N)cc32)c1` (stereo partly drawn) [Example 50, 5-Cyano-1-(4-methoxybenzenesulfonyl)-3-(2-methoxy-5-propylaminomethylphenyl)-3-((S)-2-oxazol-2-yl-pyrrolidin-1-yl)-1,3-dihydroindol-2-one] gave an inhibitory constant (Ki) of less than 0.01 µM.

On to `COc1ccc(S(=O)(=O)N2C(=O)C(c3cc(CNC(C)C)ccc3OC)(N3CCC[C@H]3c3ncco3)c3cc(C#N)ccc32)cc1` (stereo partly drawn) [Example 52, 5-Cyano-3-[5-(isopropylaminomethyl)-2-methoxyphenyl]-1-(4-methoxybenzenesulfonyl)-3-((S)-2-oxazol-2-yl-pyrrolidin-1-yl)-1,3-dihydroindol-2-one], for which the inhibition constant Ki was in the range of 0.01 to 0.1 µM.

In turn, `COc1ccc(S(=O)(=O)N2C(=O)C(c3cc(CN(C)C(C)C)ccc3OC)(N3CCC[C@H]3c3ncco3)c3cc(C#N)ccc32)cc1` (stereo partly drawn) [Example 53, 5-Cyano-3-{5-[(isopropylmethylamino)methyl]-2-methoxyphenyl}-1-(4-methoxybenzenesulfonyl)-3-((S)-2-oxazol-2-yl-pyrrolidin-1-yl)-1,3-dihydroindol-2-one] had an inhibitory constant (Ki) of 0.01 to 0.1 µM.

Regarding `COc1ccc(S(=O)(=O)N2C(=O)C(c3cc(CNCCO)ccc3OC)(N3CCC[C@H]3c3ncco3)c3cc(C#N)ccc32)cc1` (stereo partly drawn) [Example 54, 5-Cyano-3-{5-[(2-hydroxyethylamino)methyl]-2-methoxyphenyl}-1-(4-methoxybenzenesulfonyl)-3-((S)-2-oxazol-2-yl-pyrrolidin-1-yl)-1,3-dihydroindol-2-one], the Ki was in the range of 0.01 to 0.1 µM.

As to `COCCN(C)Cc1ccc(OC)c(C2(N3CCC[C@H]3c3ncco3)C(=O)N(S(=O)(=O)c3ccc(OC)cc3)c3ccc(C#N)cc32)c1` (stereo partly drawn) [Example 55, 5-Cyano-1-(4-methoxybenzenesulfonyl)-3-(2-methoxy-5-{[(2-methoxyethyl)methylamino]methyl}phenyl)-3-((S)-2-oxazol-2-yl-pyrrolidin-1-yl)-1,3-dihydroindol-2-one], the Ki lay in the range of 0.01 to 0.1 µM.

For the molecule `COc1ccc(S(=O)(=O)N2C(=O)C(c3cc(CN4CCN(C)CC4)ccc3OC)(N3CCC[C@H]3c3ncco3)c3cc(C#N)ccc32)cc1` (stereo partly drawn) [Example 56, 5-Cyano-1-(4-methoxybenzenesulfonyl)-3-[2-methoxy-5-(4-methylpiperazin-1-ylmethyl)phenyl]-3-((S)-2-oxazol-2-yl-pyrrolidin-1-yl)-1,3-dihydroindol-2-one], the Ki was less than 0.01 µM.

`COc1ccc(S(=O)(=O)N2C(=O)C(c3cc(CN4CCNCC4)ccc3OC)(N3CCC[C@H]3c3ncco3)c3cc(C#N)ccc32)cc1` (stereo partly drawn) [Example 57, 5-Cyano-1-(4-methoxybenzenesulfonyl)-3-(2-methoxy-5-piperazin-1-ylmethylphenyl)-3-((S)-2-oxazol-2-yl-pyrrolidin-1-yl)-1,3-dihydroindol-2-one] registered a Ki of less than 0.01 µM.

Molecule `COc1ccc(S(=O)(=O)N2C(=O)C(c3cc(CN4CCOCC4)ccc3OC)(N3CCC[C@H]3c3ncco3)c3cc(C#N)ccc32)cc1` (stereo partly drawn) [Example 58, 5-Cyano-1-(4-methoxybenzenesulfonyl)-3-(2-methoxy-5-morpholin-4-ylmethylphenyl)-3-((S)-2-oxazol-2-yl-pyrrolidin-1-yl)-1,3-dihydroindol-2-one] came in with a Ki of 0.01 to 0.1 µM.

With `COc1ccc(S(=O)(=O)N2C(=O)C(c3cc(CN4CCCC4)ccc3OC)(N3CCC[C@H]3c3ncco3)c3cc(C#N)ccc32)cc1` (stereo partly drawn) [Example 60, 5-Cyano-1-(4-methoxybenzenesulfonyl)-3-(2-methoxy-5-pyrrolidin-1-ylmethylphenyl)-3-((S)-2-oxazol-2-yl-pyrrolidin-1-yl)-1,3-dihydroindol-2-one], the Ki was 0.01 to 0.1 µM.

`COc1ccc(S(=O)(=O)N2C(=O)C(c3cc(CN4CCCCC4)ccc3OC)(N3CCC[C@H]3c3ncco3)c3cc(C#N)ccc32)cc1` (stereo partly drawn) [Example 61, 5-Cyano-1-(4-methoxybenzenesulfonyl)-3-(2-methoxy-5-piperidin-1-ylmethylphenyl)-3-((S)-2-oxazol-2-yl-pyrrolidin-1-yl)-1,3-dihydroindol-2-one] displayed an inhibition constant (Ki) of 0.01 to 0.1 µM.

For `CNCc1ccc(OC)c(C2(N3CCC[C@H]3c3ncco3)C(=O)N(S(=O)(=O)c3ccc(OC)cc3)c3cc(Cl)c(Cl)cc32)c1` (stereo partly drawn) [Example 63, 5,6-Dichloro-1-(4-methoxybenzenesulfonyl)-3-(2-methoxy-5-methylaminomethylphenyl)-3-((S)-2-oxazol-2-yl-pyrrolidin-1-yl)-1,3-dihydroindol-2-one], the Ki is 0.01 to 0.1 µM.

Consider `COc1ccc(S(=O)(=O)N2C(=O)C(c3cc(CN(C)C)ccc3OC)(N3CCC[C@H]3c3ncco3)c3cc(Cl)c(Cl)cc32)cc1` (stereo partly drawn) [Example 64, 5,6-Dichloro-3-(5-dimethylaminomethyl-2-methoxyphenyl)-1-(4-methoxybenzenesulfonyl)-3-((S)-2-oxazol-2-yl-pyrrolidin-1-yl)-1,3-dihydroindol-2-one], for which the inhibition constant Ki lay within 0.01 to 0.1 µM.

Regarding `CCNCc1ccc(OC)c(C2(N3CCC[C@H]3c3ncco3)C(=O)N(S(=O)(=O)c3ccc(OC)cc3)c3cc(Cl)c(Cl)cc32)c1` (stereo partly drawn) [Example 65, 5,6-Dichloro-3-(5-ethylaminomethyl-2-methoxyphenyl)-1-(4-methoxybenzenesulfonyl)-3-((S)-2-oxazol-2-yl-pyrrolidin-1-yl)-1,3-dihydroindol-2-one], the Ki was 0.01 to 0.1 µM.

Take `CCCNCc1ccc(OC)c(C2(N3CCC[C@H]3c3ncco3)C(=O)N(S(=O)(=O)c3ccc(OC)cc3)c3cc(Cl)c(Cl)cc32)c1` (stereo partly drawn) [Example 68, 5,6-Dichloro-1-(4-methoxybenzenesulfonyl)-3-(2-methoxy-5-propylaminomethylphenyl)-3-((S)-2-oxazol-2-yl-pyrrolidin-1-yl)-1,3-dihydroindol-2-one]: the Ki was in the range of 0.01 to 0.1 µM.

Consider `COc1ccc(S(=O)(=O)N2C(=O)C(c3cc(CNC(C)C)ccc3OC)(N3CCC[C@H]3c3ncco3)c3cc(Cl)c(Cl)cc32)cc1` (stereo partly drawn) [Example 70, 5,6-Dichloro-3-[5-(isopropylaminomethyl)-2-methoxyphenyl]-1-(4-methoxybenzenesulfonyl)-3-((S)-2-oxazol-2-yl-pyrrolidin-1-yl)-1,3-dihydroindol-2-one], for which the Ki fell in the range of 0.01 to 0.1 µM.

By Ki is commonly meant a measure of affinity in units of concentration, obtained from inhibition or displacement. The low end stands for tighter binding, the high end for weaker binding.
